Test [1] deals with iPSC differentiation cultures on Laminin 521. The experiment in a line: WNT agonist addition during iPSC directed differentiation. The conditions noted are these: for Stage 1 differentiation efficiency at day 6, CD31 and CD34 immunofluorescence: first 48 hours. The format is cell-based, human. An excerpt:
WNT signaling is important during development. The GSK3 kinase inhibitors CHIR98014 and CHIR99021 act as WNT agonists. […] The control and CHIR98014 cultures were then transitioned to Stage 2, where the production and release of preMKs were tracked by immunofluorescence staining of CD41 and CD43.

The test system of test [2] is iPSCs. Kind of test: Soluble Laminin 521 addition in 3D iPSC differentiation, preMK yield. The format is cell-based, human. The following applies: for Stage 2 preMK yields vs control: addition at Day −1 or Day 6. On the procedure: […] 24 hours later, the media was replaced with Stage 1 media and media exchanges were performed for 6 days. Media was then exchanged with Stage 2 media, with or without soluble Laminin 521. 24 hours later, daily half media exchanges were performed for up to 6 additional days. […] To determine if the effect of Laminin 521 could also be observed in agitated 3D cultures, iPSCs were dissociated as single cells and 1.5 million cells were seeded into each well of a 6-well ultra-low adherent plate containing StemFlex and the Rock inhibitor H1152 (control media), with or without soluble recombinant Laminin 521, and placed on an orbital shaker. 24 hours later, the media was replaced with Stage 1 media and media exchanges were performed for 6 days. Media was then exchanged with Stage 2 media, with or without soluble Laminin 521. 24 hours later, daily half media exchanges were performed for up to 6 additional days.

`Cc1c[nH]c(-c2cnc(NCCNc3ccc(C#N)cn3)nc2-c2ccc(Cl)cc2Cl)n1` [CHIR99021]: in test [1] (6 μM), the “Stage 1 differentiation efficiency at day 6, CD31 and CD34 immunofluorescence” value was “dramatic increase”.

Consider CHIR98014, for which the “Stage 1 differentiation efficiency at day 6, CD31 and CD34 immunofluorescence” value in test [1] (0.6 μM) is recorded as “dramatic increase”. Besides, the “Stage 2 output, visual estimation of CD41+ cells” value in test [1] (0.6 μM, first 48 hours of Stage 1) is listed as “higher output during Stage 2”.

As to “Laminin 521: soluble recombinant Laminin 521”, the “Stage 2 preMK yields vs control” value in test [2] (6-well ultra-low adherent plate on orbital shaker) and in test [2] (96-well U-bottom ultra-low adherent plate) was “increased the preMK yields” each time. The “Laminin 521 effect on preMK yields” value in test [2] (single cell passaged iPSCs aggregated in NutriStem) is recorded as “amplified”.

Source of the values: patent publication US12496315B2, “Compositions for drug delivery and methods of use thereof” (Stellular Bio, Inc., priority 2018, dated 2025).
